Measurements as given in PMC7377239, “Cardiovascular Effects of Polychlorinated Biphenyls and Their Major Metabolites” (Environmental Health Perspectives, 2020).

Assays:
[1] = test system: iCell cardiomyocytes (human iPSC-derived cardiomyocytes); test: High-content imaging of cytotoxicity and mitochondrial integrity in iPSC-CMs; assay type: cell-based; details: 0.00 µM = 100.00
Summary of the method: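 Readouts from high-content images were normalized to vehicle controls containing 0.5% vol/vol DMSO. They were fit to a four-parameter logistic model in R. Points of departure were set using a cutoff of one standard deviation across vehicle control means. Where no concentration–response was seen, the top tested concentration of 100μM was assigned as the no observable adverse effect level.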

HUVECs = test: High-content imaging cytotoxicity in HUVECs, 24 h; assay type: cell-based, human; details: HUVECs, 24 hr, 0.00 µM = 100.00
Summary of the method: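 Point-of-departure values derive from four-parameter logistic fits of vehicle-normalized imaging phenotypes (Hoechst 33342, MitoTracker Orange, calcein AM). The fits follow 24 h exposure of HUVEC monolayers at 37°C and 5% CO2, with a top tested concentration of 100μM.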

Work on Clc1ccc(Cl)c(-c2c(Cl)ccc(Cl)c2Cl)c1Cl [(-)-PCB 136, 2,2′,3,3′,6,6′-hexachlorobiphenyl] yielded a cm.mii.90min ([1]; 0.01 µM) of 112.68, a cm.mito.90min ([1]; 0.01 µM) of 96.45 and a cm.mii.24hrs ([1]; 0.01 µM) of 102.85. The cm.mito.24hrs ([1]; 0.01 µM) was 101.32, the cm.mii.90min ([1]; 0.10 µM) was 114.32 and the cm.mito.90min ([1]; 0.10 µM) was 99.06. It also gave a cm.mii.24hrs ([1]; 0.10 µM) of 75.71, a cm.mito.24hrs ([1]; 0.10 µM) of 97.62 and a cm.mii.90min ([1]; 1.00 µM) of 108.72. For the same molecule, the cm.mito.90min ([1]; 1.00 µM) was 99.64, the cm.mii.24hrs ([1]; 1.00 µM) was 98.56 and the cm.mito.24hrs ([1]; 1.00 µM) was 95.39. It also gave a cm.mii.90min ([1]; 10.00 µM) of 109.00, a cm.mito.90min ([1]; 10.00 µM) of 96.91 and a cm.mii.24hrs ([1]; 10.00 µM) of 82.93. The cm.mito.24hrs ([1]; 10.00 µM) was 97.40, the cm.mii.90min ([1]; 100.00 µM) was 5.98 and the cm.mito.90min ([1]; 100.00 µM) was 0.07. It also gave a cm.mii.24hrs ([1]; 100.00 µM) of 87.76, a cm.mito.24hrs ([1]; 100.00 µM) of 0.79 and a huvec.mito.24hr (HUVECs; concentration 0.01 µM) of 77.23. The huvec.mitoint.24hr (HUVECs; concentration 0.01 µM) was 84.43, the huvec.nma.24hr (HUVECs; concentration 0.01 µM) was 98.77 and the huvec.mito.24hr (HUVECs; concentration 0.10 µM) was 130.40. The huvec.mitoint.24hr (HUVECs; concentration 0.10 µM) was 73.90, the huvec.nma.24hr (HUVECs; concentration 0.10 µM) was 86.45 and the huvec.mito.24hr (HUVECs; concentration 1.00 µM) was 92.50. For the same molecule, the huvec.mitoint.24hr (HUVECs; concentration 1.00 µM) was 88.05, the huvec.nma.24hr (HUVECs; concentration 1.00 µM) was 99.68 and the huvec.mito.24hr (HUVECs; concentration 10.00 µM) was 30.92. It also gave a huvec.mitoint.24hr (HUVECs; concentration 10.00 µM) of 10.83, a huvec.nma.24hr (HUVECs; concentration 10.00 µM) of 50.44 and a huvec.mito.24hr (HUVECs; concentration 100.00 µM) of 29.50. The huvec.mitoint.24hr (HUVECs; concentration 100.00 µM) was 15.66 and the huvec.nma.24hr (HUVECs; concentration 100.00 µM) was 72.40.
